Results taken from PubChem BioAssay AID256 (DTP/NCI, 2004).
“And” between values parts separate entries of the source, which are not always exact repeats. Equal values may be shown once. Toxic doses and inconclusive results are not listed.

System: CD2F1 mice, L1210 leukemia ip, survival T/C
Assay: NCI In Vivo Anticancer Drug Screen. Data for tumor model L1210 Leukemia (intraperitoneal) in CD2F1 (CDF1) mice
Conditions: higher = longer survival
How it was run: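 Ratio T/C, where T is the treated-group value and C the vehicle-dosed control value, from mice implanted with a transplantable tumor.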

SMILES: O=NN(CCCl)C(=O)NC1CCCCC1
- T/C (endpoint: mean survival time, dose: 0.5 mg/kg/injection, schedule: Q03HX008 (oral), vehicle: saline): 214 % of control
- T/C (endpoint: mean survival time, dose: 0.5 mg/kg/injection, schedule: Q03HX024 (oral), vehicle: saline): 290 % of control
- T/C (endpoint: mean survival time, dose: 0.5 mg/kg/injection, schedule: Q03HX040 (oral), vehicle: saline): 200 % of control
- T/C (endpoint: mean survival time, dose: 1.0 mg/kg/injection, schedule: Q01DX001 (ip), vehicle: saline): 98 % of control
- T/C (endpoint: mean survival time, dose: 1.0 mg/kg/injection, schedule: Q01DX005 (ip), vehicle: saline): 113 % of control
- T/C (endpoint: mean survival time, dose: 1.0 mg/kg/injection, schedule: Q01DX009 (ip), vehicle: saline): 100 % of control
- T/C (endpoint: mean survival time, dose: 1.0 mg/kg/injection, schedule: Q03HX024 (oral), vehicle: saline): 194 % of control
- T/C (endpoint: mean survival time, dose: 1.0 mg/kg/injection, schedule: Q03HX040 (oral), vehicle: saline): 96 % of control
- T/C (endpoint: mean survival time, dose: 2.0 mg/kg/injection, schedule: Q03HX008 (oral), vehicle: saline): 338 % of control
- T/C (endpoint: mean survival time, dose: 4.0 mg/kg/injection, schedule: Q01DX001 (ip), vehicle: other): 109 % of control
- T/C (endpoint: mean survival time, dose: 4.0 mg/kg/injection, schedule: Q03HX024 (oral), vehicle: saline): 96 % of control
- T/C (endpoint: mean survival time, dose: 8.0 mg/kg/injection, schedule: Q01DX001 (ip), vehicle: saline): 108 % of control
- T/C (endpoint: mean survival time, dose: 8.0 mg/kg/injection, schedule: Q01DX001 (oral), vehicle: saline): 100 % of control
- T/C (endpoint: mean survival time, dose: 8.0 mg/kg/injection, schedule: Q01DX005 (ip), vehicle: saline): 267 % of control
- T/C (endpoint: mean survival time, dose: 8.0 mg/kg/injection, schedule: Q01DX009 (ip), vehicle: saline): 191 % of control
- T/C (endpoint: mean survival time, dose: 8.0 mg/kg/injection, schedule: Q03HX008 (ip), vehicle: saline): 108 % of control
- T/C (endpoint: mean survival time, dose: 8.0 mg/kg/injection, schedule: Q04DX003 (ip), vehicle: saline): 124 % of control
- T/C (endpoint: mean survival time, dose: 9.0 mg/kg/injection, schedule: Q01DX001 (ip), vehicle: carboxymethylcellulose (CMC)): 111 % of control
- T/C (endpoint: mean survival time, dose: 16.0 mg/kg/injection, schedule: Q01DX001 (ip), vehicle: other): 169 % of control
- T/C (endpoint: mean survival time, dose: 16.0 mg/kg/injection, schedule: Q01DX005 (ip), vehicle: saline): 393 % of control
- T/C (endpoint: mean survival time, dose: 16.0 mg/kg/injection, schedule: Q01DX009 (ip), vehicle: saline): 315 % of control
- T/C (endpoint: mean survival time, dose: 16.0 mg/kg/injection, schedule: Q03HX024 (ip), vehicle: saline): 210 % of control
- T/C (endpoint: mean survival time, dose: 16.0 mg/kg/injection, schedule: Q03HX040 (ip), vehicle: saline): 217 % of control
- T/C (endpoint: mean survival time, dose: 16.0 mg/kg/injection, schedule: Q04DX003 (ip), vehicle: saline + alcohol): 158 % of control and 425 % of control
- T/C (endpoint: mean survival time, dose: 16.0 mg/kg/injection, schedule: Q04DX003 (ip), vehicle: saline): 279 % of control
- T/C (endpoint: mean survival time, dose: 22.0 mg/kg/injection, schedule: Q01DX001 (ip), vehicle: carboxymethylcellulose (CMC)): 178 % of control
- T/C (endpoint: mean survival time, dose: 32.0 mg/kg/injection, schedule: Q01DX001 (ip), vehicle: other): 348 % of control
- T/C (endpoint: mean survival time, dose: 32.0 mg/kg/injection, schedule: Q01DX001 (ip), vehicle: saline): 157 % of control
- T/C (endpoint: mean survival time, dose: 32.0 mg/kg/injection, schedule: Q01DX001 (oral), vehicle: saline): 118 % of control
- T/C (endpoint: mean survival time, dose: 32.0 mg/kg/injection, schedule: Q01DX005 (ip), vehicle: saline): 393 % of control
- T/C (endpoint: mean survival time, dose: 32.0 mg/kg/injection, schedule: Q01DX005 (oral), vehicle: saline): 310 % of control
- T/C (endpoint: mean survival time, dose: 32.0 mg/kg/injection, schedule: Q01DX009 (ip), vehicle: saline): 224 % of control
- T/C (endpoint: mean survival time, dose: 32.0 mg/kg/injection, schedule: Q01DX009 (oral), vehicle: saline): 159 % of control
- T/C (endpoint: mean survival time, dose: 32.0 mg/kg/injection, schedule: Q03HX008 (ip), vehicle: saline): 191 % of control
- T/C (endpoint: mean survival time, dose: 32.0 mg/kg/injection, schedule: Q03HX024 (ip), vehicle: saline): 421 % of control
- T/C (endpoint: mean survival time, dose: 32.0 mg/kg/injection, schedule: Q03HX040 (ip), vehicle: saline): 432 % of control
- T/C (endpoint: mean survival time, dose: 32.0 mg/kg/injection, schedule: Q04DX003 (ip), vehicle: saline + alcohol): 515 % of control
- T/C (endpoint: mean survival time, dose: 32.0 mg/kg/injection, schedule: Q04DX003 (ip), vehicle: saline): 406 % of control
- T/C (endpoint: mean survival time, dose: 32.0 mg/kg/injection, schedule: Q04DX003 (oral), vehicle: saline): 267 % of control
- T/C (endpoint: mean survival time, dose: 33.0 mg/kg/injection, schedule: Q01DX001 (ip), vehicle: carboxymethylcellulose (CMC)): 208 % of control
- T/C (endpoint: mean survival time, dose: 48.0 mg/kg/injection, schedule: Q04DX003 (ip), vehicle: saline + alcohol): 82 % of control
- T/C (endpoint: mean survival time, dose: 50.0 mg/kg/injection, schedule: Q01DX001 (ip), vehicle: carboxymethylcellulose (CMC)): 352 % of control
- T/C (endpoint: mean survival time, dose: 64.0 mg/kg/injection, schedule: Q01DX001 (ip), vehicle: other): 208 % of control
- T/C (endpoint: mean survival time, dose: 64.0 mg/kg/injection, schedule: Q01DX001 (ip), vehicle: saline): 411 % of control
- T/C (endpoint: mean survival time, dose: 64.0 mg/kg/injection, schedule: Q01DX005 (ip), vehicle: saline): 98 % of control
- T/C (endpoint: mean survival time, dose: 64.0 mg/kg/injection, schedule: Q01DX005 (oral), vehicle: saline): 107 % of control
- T/C (endpoint: mean survival time, dose: 64.0 mg/kg/injection, schedule: Q01DX009 (ip), vehicle: saline): 120 % of control
- T/C (endpoint: mean survival time, dose: 64.0 mg/kg/injection, schedule: Q01DX009 (oral), vehicle: saline): 95 % of control
- T/C (endpoint: mean survival time, dose: 64.0 mg/kg/injection, schedule: Q03HX008 (ip), vehicle: saline): 437 % of control
- T/C (endpoint: mean survival time, dose: 64.0 mg/kg/injection, schedule: Q03HX024 (ip), vehicle: saline): 330 % of control
- T/C (endpoint: mean survival time, dose: 64.0 mg/kg/injection, schedule: Q03HX040 (ip), vehicle: saline): 259 % of control
- T/C (endpoint: mean survival time, dose: 64.0 mg/kg/injection, schedule: Q04DX003 (ip), vehicle: saline): 209 % of control
- T/C (endpoint: mean survival time, dose: 75.0 mg/kg/injection, schedule: Q01DX001 (ip), vehicle: carboxymethylcellulose (CMC)): 332 % of control
- T/C (endpoint: mean survival time, dose: 128.0 mg/kg/injection, schedule: Q01DX001 (ip), vehicle: saline): 198 % of control
- T/C (endpoint: mean survival time, dose: 128.0 mg/kg/injection, schedule: Q01DX001 (oral), vehicle: saline): 330 % of control
- T/C (endpoint: mean survival time, dose: 128.0 mg/kg/injection, schedule: Q03HX008 (ip), vehicle: saline): 437 % of control
- T/C (endpoint: mean survival time, dose: 128.0 mg/kg/injection, schedule: Q03HX040 (ip), vehicle: saline): 86 % of control
- T/C (endpoint: mean survival time, dose: 128.0 mg/kg/injection, schedule: Q04DX003 (oral), vehicle: saline): 110 % of control
- T/C (endpoint: mean survival time, dose: 256.0 mg/kg/injection, schedule: Q04DX003 (oral), vehicle: saline): 86 % of control
- T/C (endpoint: median survival time, dose: 1.0 mg/kg/injection, schedule: Q01DX009 (ip), vehicle: Klucel (hydroxypropylcellulose) (HPC)): 113 % of control and 106 % of control
- T/C (endpoint: median survival time, dose: 2.0 mg/kg/injection, schedule: Q01DX009 (ip), vehicle: Klucel (hydroxypropylcellulose) (HPC)): 113 % of control
- T/C (endpoint: median survival time, dose: 4.0 mg/kg/injection, schedule: Q04DX003 (ip), vehicle: saline + alcohol): 105 % of control
- T/C (endpoint: median survival time, dose: 8.0 mg/kg/injection, schedule: Q04DX003 (ip), vehicle: saline + alcohol): 98 % of control
- T/C (endpoint: median survival time, dose: 8.4 mg/kg/injection, schedule: Q01DX001 (ip), vehicle: distilled water + Tween-80 + alcohol): 94 % of control
- T/C (endpoint: median survival time, dose: 14.0 mg/kg/injection, schedule: Q01DX001 (ip), vehicle: distilled water + Tween-80 + alcohol): 100 % of control
- T/C (endpoint: median survival time, dose: 14.0 mg/kg/injection, schedule: Q07DX003 (ip), vehicle: saline + alcohol): 157 % of control
- T/C (endpoint: median survival time, dose: 16.0 mg/kg/injection, schedule: Q04DX003 (ip), vehicle: saline + alcohol): 109 % of control
- T/C (endpoint: median survival time, dose: 20.0 mg/kg/injection, schedule: Q07DX003 (ip), vehicle: saline + alcohol): 584 % of control
- T/C (endpoint: median survival time, dose: 26.0 mg/kg/injection, schedule: Q07DX003 (ip), vehicle: saline + alcohol): 669 % of control
- T/C (endpoint: median survival time, dose: 27.0 mg/kg/injection, schedule: Q01DX001 (ip), vehicle: carboxymethylcellulose (CMC)): 184 % of control
- T/C (endpoint: median survival time, dose: 32.0 mg/kg/injection, schedule: Q04DX003 (ip), vehicle: saline + alcohol): 438 % of control
- T/C (endpoint: median survival time, dose: 33.0 mg/kg/injection, schedule: Q07DX003 (ip), vehicle: saline + alcohol): 671 % of control
- T/C (endpoint: median survival time, dose: 40.0 mg/kg/injection, schedule: Q01DX001 (ip), vehicle: carboxymethylcellulose (CMC)): 722 % of control
- T/C (endpoint: median survival time, dose: 40.0 mg/kg/injection, schedule: Q01DX001 (ip), vehicle: distilled water + Tween-80 + alcohol): 154 % of control
- T/C (endpoint: median survival time, dose: 64.0 mg/kg/injection, schedule: Q01DX009 (ip), vehicle: Klucel (hydroxypropylcellulose) (HPC)): 96 % of control and 109 % of control

SMILES: CC(=O)c1ccc(NCN2C(=O)c3ccccc3C2=O)cc1
- T/C (endpoint: mean survival time, dose: 100.0 mg/kg/injection, schedule: Q01DX009 (ip), vehicle: saline with Tween-80): 96 % of control
- T/C (endpoint: mean survival time, dose: 200.0 mg/kg/injection, schedule: Q01DX009 (ip), vehicle: saline with Tween-80): 98 % of control
- T/C (endpoint: mean survival time, dose: 400.0 mg/kg/injection, schedule: Q01DX009 (ip), vehicle: saline with Tween-80): 98 % of control
